Measured values taken from US20100226987A1, “TARGETING CONJUGATES COMPRISING ACTIVE AGENTS ENCAPSULATED IN CYCLODEXTRIN-CONTAINING POLYMERS” (CAPSUTECH LTD., priority 2007, published 2010).

Test system: human nasopharyngeal KB cancer cells, which overexpress the folate receptor (FR)
Assay: In vitro binding of RhB-encapsulating conjugates to KB cells (fluorescence counting and fluorescence microscopy)
Format: cell-based
Details: control = mixture of non-encapsulated RhB, free CD derivative, PEG and FA, FIGS. 1A-1B
Procedure: Cell culture. KB cells (ATCC CCL-17) were obtained from ATCC and grown on Minimum essential medium (Eagle) with 2 mM L-glutamine; 0.1 mM non-essential amino acids; 0.2 Earle's BSS adjusted to contain 1.5 g/l sodium bicarbonate; and 1.0 mM sodium pyruvate, 90%; heat inactivated fetal bovine serum, 10%. Cells were subcultured according to the ATCC recommended protocol. After 3 cycles of splitting at 85% confluence, 2,000 to 50,000 cells were seeded on transparent 96 well plate. Following 24 hours it was decided that optimal conditions would be seeding 35,000 cells per well for assay to be carried out in the following day. […]
KB cancer cells were cultured as described in Materials and Methods, and seeded on both Black and transparent 96 well plates for fluorescence counting and fluorescent microscopy. […] The medium was then washed 3 times with PBS 1 X, and fluorescence associated with the cells in both plates was counted using Analyst HT (Ex 525 nm, Dc 560 nm, Em 595 nm). The net fluorescence was calculated by subtracting the averaged background fluorescence form the fluorescence of the conjugate-treated cells. The transparent plate was further analyzed by fluorescence microscopy.

Di-CD-Glu-PEG3350-FA-RhB [Conjugate 55]
fluorescence of treated cells higher relative to control: 780%
